# Measured values as given in patent US20060223996A1, “IL-12 modulatory compounds” (Synta Pharmaceuticals Corp., priority 2004, published 2006).
# System: IL-12
# Assay: Human in vitro assay: inhibition of IL-12 production in IFNγ/LPS- or IFNγ/SAC-stimulated human PBMC or THP-1 cells (ELISA)
# Assay type: cell-based
# Conditions: read-out: IC50 Range (representative in vitro IC50 data)
# Outline: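 PBMC (5×10^5 cells/well) primed with IFNγ 30 U/mL for 22 h then LPS 1 μg/mL, or IFNγ 100 U/mL then SAC 0.01%; THP-1 primed with IFNγ 100 U/mL for 22 h then SAC 0.025%, with compound in 0.25% DMSO. Supernatant IL-12 p70/p40 measured by sandwich ELISA after 18 h; IC50 derived; viability by MTS.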
row,IC50,SMILES
1,≥ 1000 nM,"COCCN(C)c1cc(C(=O)Nc2ccc3nc(C)c(C)nc3c2)nc(N2CCOCC2)n1 [Compound 241, 6-[(2-Methoxy-ethyl)-methyl-amino]-2-morpholin-4-yl-pyrimidine-4-carboxylic acid (2,3-dimethyl-quinoxalin-6-yl)-amide]"
2,≥ 1000 nM,"COCCN(C)c1cc(C(=O)Nc2cccc(-c3cnc4ccccc4n3)c2)nc(N2CCOCC2)n1 [Compound 242, 6-[(2-Methoxy-ethyl)-methyl-amino]-2-morpholin-4-yl-pyrimidine-4-carboxylic acid (3-quinoxalin-2-yl-phenyl)-amide]"
3,≥ 1000 nM,"COCCN(C)c1cc(C(=O)Nc2cccc(OC(F)(F)F)c2)nc(N2CCOCC2)n1 [Compound 244, 6-[(2-Methoxy-ethyl)-methyl-amino]-2-morpholin-4-yl-pyrimidine-4-carboxylic acid (3-trifluoromethoxy-phenyl)-amide]"
4,< 1000 nM,"CNc1cc(C(=O)Nc2ccc3[nH]c(C)c(C)c3c2)nc(N2CCOCC2)n1 [Compound 247, N-(2,3-dimethyl-1H-indol-5-yl)-6-(methylamino)-2-morpholino-pyrimidine-4-carboxamide]"
5,< 1000 nM,"Cc1[nH]c2ccc(NC(=O)c3cc(N(C)C)nc(N4CCOCC4)n3)cc2c1C [Compound 248, N-(2,3-dimethyl-1H-indol-5-yl)-6-(dimethylamino)-2-morpholino-pyrimidine-4-carboxamide]"
6,≥ 1000 nM,"Cc1[nH]c2ccc(NC(=O)c3cc(OCCS(C)(=O)=O)nc(N4CCOCC4)n3)cc2c1C [Compound 249, N-(2,3-dimethyl-1H-indol-5-yl)-6-(2-(methylsulfonyl)ethoxy)-2-morpholinopyrimidine-4-carboxamide]"
7,< 1000 nM,"Cc1[nH]c2ccc(NC(=O)c3cc(OCCC#N)nc(N4CCOCC4)n3)cc2c1C [Compound 250, 6-(2-cyanoethoxy)-N-(2,3-dimethyl-1H-indol-5-yl)-2-morpholinopyrimidine-4-carboxamide]"
8,< 1000 nM,"Cc1[nH]c2ccc(NC(=O)c3cc(N4CCN(C)CC4)nc(N4CCOCC4)n3)cc2c1C [Compound 251, N-(2,3-dimethyl-1H-indol-5-yl)-6-(4-methylpiperazin-1-yl)-2-morpholinopyrimidine-4-carboxamide]"
9,< 1000 nM,"Cc1[nH]c2ccc(NC(=O)c3cc(O)nc(N4CCOCC4)n3)cc2c1C [Compound 254, N-(2,3-dimethyl-1H-indol-5-yl)-6-hydroxy-2-morpholinopyrimidine-4-carboxamide]"
10,< 1000 nM,"Cc1[nH]c2ccc(NC(=O)c3cc(Nc4ccc5[nH]c(C)c(C)c5c4)nc(N4CCOCC4)n3)cc2c1C [Compound 255, N-(2,3-dimethyl-1H-indol-5-yl)-6-(2,3-dimethyl-1H-indol-5-ylamino)-2-morpholinopyrimidine-4-carboxamide]"
11,< 1000 nM,"CC(=O)N1CCN(c2cc(C(=O)Nc3ccc4[nH]c(C)c(C)c4c3)nc(N3CCOCC3)n2)CC1 [Compound 257, 6-(4-acetylpiperazin-1-yl)-N-(2,3-dimethyl-1H-indol-5-yl)-2-morpholinopyrimidine-4-carboxamide]"
12,< 1000 nM,"Cc1[nH]c2ccc(NC(=O)c3cc(CN4CCOCC4)nc(N4CCOCC4)n3)cc2c1C [Compound 259, N-(2,3-dimethyl-1H-indol-5-yl)-2-morpholino-6-(morpholinomethyl)pyrimidine-4-carboxamide]"
13,< 1000 nM,"Cc1cc(NC(=O)Nc2ccc3[nH]c(C)c(C)c3c2)nc(N2CCOCC2)n1 [Compound 263, 1-(2,3-dimethyl-1H-indol-5-yl)-3-(6-methyl-2-morpholinopyrimidin-4-yl)urea]"
14,< 1000 nM,"CC(=O)N1CCN(c2cc(NC(=O)Nc3ccc4[nH]c(C)c(C)c4c3)nc(N3CCOCC3)n2)CC1 [Compound 264, 1-(6-(4-acetylpiperazin-1-yl)-2-morpholinopyrimidin-4-yl)-3-(2,3-dimethyl-1H-indol-5-yl)urea]"
15,< 1000 nM,"COCCN(C)c1cc(NC(=O)Nc2ccc3[nH]c(C)c(C)c3c2)nc(N2CCOCC2)n1 [Compound 265, 1-(2,3-dimethyl-1H-indol-5-yl)-3-(6-((2-methoxyethyl)(methyl)amino)-2-morpholinopyrimidin-4-yl)urea]"
16,< 1000 nM,"CCc1c(C)[nH]c2ccc(NC(=O)Nc3cc(NCCN4CCOCC4)nc(N4CCOCC4)n3)cc12 [Compound 270, 1-(3-ethyl-2-methyl-1H-indol-5-yl)-3-(2-morpholino-6-(2-morpholinoethylamino)pyrimidin-4-yl)urea]"
17,< 1000 nM,"Cc1ccc([N+](=O)[O-])c(NC(=O)c2cc(OCCN3CCOCC3)nc(N3CCOCC3)n2)c1 [Compound 271, 2-Morpholin-4-yl-6-(2-morpholin-4-yl-ethoxy)-pyrimidine-4-carboxylic acid (5-methyl-2-nitro-phenyl)-amide]"
18,≥ 1000 nM,"Cc1ccc(N)c(NC(=O)c2cc(OCCN3CCOCC3)nc(N3CCOCC3)n2)c1 [Compound 272, 2-Morpholin-4-yl-6-(2-morpholin-4-yl-ethoxy)-pyrimidine-4-carboxylic acid (2-amino-5-methyl-phenyl)-amide]"
19,≥ 1000 nM,"CN1C(=O)c2ccc(NC(=O)c3cc(OCCN4CCOCC4)nc(N4CCOCC4)n3)cc2C1=O [Compound 274, 2-Morpholin-4-yl-6-(2-morpholin-4-yl-ethoxy)-pyrimidine-4-carboxylic acid (2-methyl-1,3-dioxo-2,3-dihydro-1H-isoindol-5-yl)-amide]"
20,≥ 1000 nM,"O=C(Nc1cccc([N+](=O)[O-])c1)c1cc(OCCN2CCOCC2)nc(N2CCOCC2)n1 [Compound 276, 2-Morpholin-4-yl-6-(2-morpholin-4-yl-ethoxy)-pyrimidine-4-carboxylic acid (3-nitro-phenyl)-amide]"

# The remaining lines, values behind:
row,SMILES,IC50
1,"COCCN(C)c1cc(C(=O)Nc2ccc3c(C(F)(F)F)cc(C(F)(F)F)nc3n2)nc(N2CCOCC2)n1 [Compound 243, 6-[(2-Methoxy-ethyl)-methyl-amino]-2-morpholin-4-yl-pyrimidine-4-carboxylic acid (5,7-bis-trifluoromethyl-[1,8]naphthyridin-2-yl)-amide]",≥ 1000 nM
2,"COCCN(C)c1cc(C(=O)Nc2cccc(-c3csc(C)n3)c2)nc(N2CCOCC2)n1 [Compound 245, 6-[(2-Methoxy-ethyl)-methyl-amino]-2-morpholin-4-yl-pyrimidine-4-carboxylic acid [3-(2-methyl-thiazol-4-yl)-phenyl]-amide]",< 1000 nM
3,"Cc1[nH]c2ccc(NC(=O)c3cc(OCCN4CCNCC4)nc(N4CCOCC4)n3)cc2c1C [Compound 246, N-(2,3-dimethyl-1H-indol-5-yl)-2-morpholino-6-(2-(piperazin-1-yl)ethoxy)pyrimidine-4-carboxamide]",< 1000 nM
4,"COCCNc1cc(C(=O)Nc2ccc3[nH]c(C)c(C)c3c2)nc(N2CCOCC2)n1 [Compound 252, N-(2,3-dimethyl-1H-indol-5-yl)-6-(2-methoxyethylamino)-2-morpholinopyrimidine-4-carboxamide]",< 1000 nM
5,"Cc1cc(C(=O)Nc2ccc3[nH]c(C)c(C)c3c2)nc(N2CCOCC2)n1 [Compound 253, N-(2,3-dimethyl-1H-indol-5-yl)-6-methyl-2-morpholinopyrimidine-4-carboxamide]",< 1000 nM
6,"CCN(CC)C(=O)COc1cc(C(=O)Nc2ccc3[nH]c(C)c(C)c3c2)nc(N2CCOCC2)n1 [Compound 256, 6-(2-(diethylamino)-2-oxoethoxy)-N-(2,3-dimethyl-1H-indol-5-yl)-2-morpholinopyrimidine-4-carboxamide]",< 1000 nM
7,"COCCN(CCOC)c1cc(C(=O)Nc2ccc3[nH]c(C)c(C)c3c2)nc(N2CCOCC2)n1 [Compound 258, 6-(bis(2-methoxyethyl)amino)-N-(2,3-dimethyl-1H-indol-5-yl)-2-morpholinopyrimidine-4-carboxamide]",< 1000 nM
8,"CC(=O)N[C@H]1CCN(c2cc(C(=O)Nc3ccc4[nH]cc(C)c4c3)nc(N3CCOCC3)n2)C1 [Compound 260, (S)-6-(3-acetamidopyrrolidin-1-yl)-N-(3-methyl-1H-indol-5-yl)-2-morpholinopyrimidine-4-carboxamide]",< 1000 nM
9,"CC(=O)N1CCN(c2cc(C(=O)Nc3ccc4[nH]cc(C)c4c3)nc(N3CCOCC3)n2)CC1 [Compound 261, 6-(4-acetylpiperazin-1-yl)-N-(3-methyl-1H-indol-5-yl)-2-morpholinopyrimidine-4-carboxamide]",< 1000 nM
10,"CC(=O)N1CCN(c2cc(C(=O)Nc3ccc4[nH]c5c(c4c3)CCCC5)nc(N3CCOCC3)n2)CC1 [Compound 262, 6-(4-acetylpiperazin-1-yl)-2-morpholino-N-(2,3,4,9-tetrahydro-1H-carbazol-6-yl)pyrimidine-4-carboxamide]",< 1000 nM
11,"CCc1c(C)[nH]c2ccc(NC(=O)Nc3cc(N4CCN(C(C)=O)CC4)nc(N4CCOCC4)n3)cc12 [Compound 266, 1-(6-(4-acetylpiperazin-1-yl)-2-morpholinopyrimidin-4-yl)-3-(3-ethyl-2-methyl-1H-indol-5-yl)urea]",< 1000 nM
12,"CCc1c(C)[nH]c2ccc(NC(=O)Nc3cc(C)nc(N4CCOCC4)n3)cc12 [Compound 267, 1-(3-ethyl-2-methyl-1H-indol-5-yl)-3-(6-methyl-2-morpholinopyrimidin-4-yl)urea]",< 1000 nM
13,"Cc1[nH]c2ccc(NC(=O)Nc3cc(N4CCN(c5ccccn5)CC4)nc(N4CCOCC4)n3)cc2c1C [Compound 268, 1-(2,3-dimethyl-1H-indol-5-yl)-3-(2-morpholino-6-(4-(pyridin-2-yl)piperazin-1-yl)pyrimidin-4-yl)urea]",< 1000 nM
14,"CCc1c(C)[nH]c2ccc(NC(=O)Nc3cc(N4CCN(c5ccccn5)CC4)nc(N4CCOCC4)n3)cc12 [Compound 269, 1-(3-ethyl-2-methyl-1H-indol-5-yl)-3-(2-morpholino-6-(4-(pyridin-2-yl)piperazin-1-yl)pyrimidin-4-yl)urea]",< 1000 nM
15,"O=C(Nc1ccc2cc[nH]c2c1)c1cc(OCCN2CCOCC2)nc(N2CCOCC2)n1 [Compound 275, 2-Morpholin-4-yl-6-(2-morpholin-4-yl-ethoxy)-pyrimidine-4-carboxylic acid (1H-indol-6-yl)-amide]",< 1000 nM
